For 15 molecules, IC50 results are on record in ChEMBL document CHEMBL4417631, “Oral peptide inhibitors of interleukin-23 receptor and their use to treat inflammatory bowel diseases” (2017).

The structures appear in SMILES notation. Where a SMILES comes first, the peptide text is derived from it.

For the test, the target named is T1, Interleukin-23 receptor (Homo sapiens, UniProt Q5VWK5).
T1 sequence (Q5VWK5 whole entry): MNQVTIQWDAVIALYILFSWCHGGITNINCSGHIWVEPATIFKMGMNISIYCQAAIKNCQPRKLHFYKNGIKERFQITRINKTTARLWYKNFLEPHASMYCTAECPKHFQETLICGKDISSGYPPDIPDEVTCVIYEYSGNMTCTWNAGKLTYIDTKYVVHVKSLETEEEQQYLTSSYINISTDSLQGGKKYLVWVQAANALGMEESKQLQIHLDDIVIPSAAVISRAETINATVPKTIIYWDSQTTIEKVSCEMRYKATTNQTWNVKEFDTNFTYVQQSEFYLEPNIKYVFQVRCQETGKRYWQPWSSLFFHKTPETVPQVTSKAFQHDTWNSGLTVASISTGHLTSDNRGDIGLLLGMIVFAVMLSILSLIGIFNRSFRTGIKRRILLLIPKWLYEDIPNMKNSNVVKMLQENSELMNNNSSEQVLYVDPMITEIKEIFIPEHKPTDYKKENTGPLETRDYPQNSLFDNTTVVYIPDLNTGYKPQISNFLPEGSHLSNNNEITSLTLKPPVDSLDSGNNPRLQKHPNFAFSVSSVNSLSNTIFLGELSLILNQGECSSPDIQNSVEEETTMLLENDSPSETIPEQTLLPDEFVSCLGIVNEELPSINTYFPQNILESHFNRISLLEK
Description: Inhibition of interleukin-23 binding to human interleukin-23 receptor incubated for 2 hrs by competitive binding ELISA. (In general: ELISA stands for enzyme-linked immunosorbent assay.)
The term IC50 denotes the concentration needed to halve the response being measured. `C[C@H](NC(=O)[C@@H](N)CS)C(=O)N[C@@H](CC(=O)O)C(=O)N[C@@H](Cc1c[nH]c2ccccc12)C(=O)N[C@@H](CS)C(=O)N[C@@H](CS)C(=O)N[C@@H](Cc1ccc(O)cc1)C(=O)N[C@@H](Cc1c[nH]c2ccccc12)C(=O)N[C@@H](CS)C(=O)N[C@H](C(=O)N[C@@H](Cc1ccccc1)C(=O)NCC(N)=O)[C@@H](C)O` (H-CADWCCYWCTFG-NH2) showed an IC50 above 1000 nM.
Consider `C[C@@H](O)[C@H](NC(=O)[C@@H](NC(=O)[C@@H](N)CS)[C@@H](C)O)C(=O)N[C@@H](Cc1c[nH]c2ccccc12)C(=O)N[C@@H](CCCCN)C(=O)N[C@@H](CS)C(=O)N[C@@H](Cc1ccc(O)cc1)C(=O)N[C@@H](Cc1c[nH]c2ccccc12)C(=O)N[C@@H](Cc1cnc[nH]1)C(=O)N[C@@H](CCC(N)=O)C(=O)N[C@@H](Cc1ccc(O)cc1)C(=O)NCC(N)=O` (H-CTTWKCYWHQYG-NH2), for which the IC50 fell in the range of 500 to 1000 nM.
In turn, `CC(=O)N[C@@H](CS)C(=O)N[C@@H](C)C(=O)N[C@@H](CC(=O)O)C(=O)N[C@@H](Cc1c[nH]c2ccccc12)C(=O)N[C@H](C(=O)N[C@@H](CS)C(=O)N[C@@H](Cc1ccc(O)cc1)C(=O)N[C@@H](Cc1c[nH]c2ccccc12)C(=O)N[C@@H](CCCN)C(=O)N[C@@](C)(CC(C)C)C(=O)N[C@@H](Cc1ccccc1)C(=O)NCC(=O)NCCOCC(=O)N[C@H](CCCCN)C(N)=O)C(C)C` gave an IC50 of 6000 nM. In other words, the single-digit micromolar range.
`CC(C)[C@H](NC(=O)[C@H](Cc1cnc[nH]1)NC(=O)[C@H](Cc1c[nH]c2ccccc12)NC(=O)[C@H](Cc1ccc(O)cc1)NC(=O)[C@H](CS)NC(=O)[C@@H](NC(=O)[C@H](Cc1c[nH]c2ccccc12)NC(=O)[C@H](CC(=O)O)NC(=O)[C@H](CO)NC(=O)[C@@H](N)CS)C(C)C)C(=O)N[C@@H](Cc1ccc(O)cc1)C(=O)NCC(N)=O` (H-CSDWVCYWHVYG-NH2) returned an IC50 of 500 to 1000 nM.
With `CC(=O)NC1C/C=C\CCCC(C(=O)N[C@@H](Cc2ccc(O)cc2)C(=O)N[C@@H](Cc2c[nH]c3ccccc23)C(=O)N[C@@H](CCCNC(=N)N)C(=O)N[C@@H](CCCCN)C(=O)N[C@@H](Cc2ccccc2)C(=O)NCC(=O)NCCOCC(=O)N[C@H](CCCCN)C(N)=O)NC(=O)[C@H](CCC(N)=O)NC(=O)[C@H](Cc2c[nH]c3ccccc23)NC(=O)[C@H]([C@@H](C)O)NC(=O)[C@H](CCCNC(=N)N)NC1=O` (stereo not given in full), the IC50 is 1000 to 10000 nM.
Next, `CC(C)[C@H](NC(=O)[C@H](Cc1c[nH]c2ccccc12)NC(=O)[C@H](CC(=O)O)NC(=O)[C@H](C)NC(=O)[C@@H](N)CS)C(=O)N[C@@H](CS)C(=O)N[C@@H](Cc1ccc(O)cc1)C(=O)N[C@@H](Cc1c[nH]c2ccccc12)C(=O)N[C@@H](Cc1cnc[nH]1)C(=O)N[C@H](C(=O)N[C@@H](Cc1ccccc1)C(=O)NCC(=O)N[C@@H](CCCCNC(=O)COCC(=O)NCCCC[C@H](NC(=O)CNC(=O)[C@H](Cc1ccccc1)NC(=O)[C@@H](NC(=O)[C@H](Cc1cnc[nH]1)NC(=O)[C@H](Cc1c[nH]c2ccccc12)NC(=O)[C@H](Cc1ccc(O)cc1)NC(=O)[C@H](CS)NC(=O)[C@@H](NC(=O)[C@H](Cc1c[nH]c2ccccc12)NC(=O)[C@H](CC(=O)O)NC(=O)[C@H](C)NC(=O)[C@@H](N)CS)C(C)C)[C@@H](C)O)C(=O)O)C(=O)O)[C@@H](C)O`: 1000 to 10000 nM.
Next, `CCCCCCCCCCCCCCCC(=O)NCCCC[C@H](NC(=O)[C@H](CCCN)NC(=O)[C@H](Cc1c[nH]c2ccccc12)NC(=O)[C@H](Cc1ccc(O)cc1)NC(=O)[C@H](CS)NC(=O)[C@H](CCC(N)=O)NC(=O)[C@H](Cc1c[nH]c2ccccc12)NC(=O)[C@@H](NC(=O)[C@H](CCC(N)=O)NC(=O)[C@H](CS)NC(C)=O)[C@@H](C)O)C(=O)N[C@@H](CC(N)=O)C(=O)NCC(N)=O`: above 6000 nM.
`CC(=O)N[C@@H](CS)C(=O)N[C@@H](C)C(=O)N[C@@H](CC(=O)O)C(=O)N[C@@H](Cc1c[nH]c2ccccc12)C(=O)N[C@@H](CCC(=O)O)C(=O)N[C@@H](CS)C(=O)N[C@@H](Cc1ccc(O)cc1)C(=O)N[C@@H](Cc1c[nH]c2ccccc12)C(=O)N[C@@H](Cc1cnc[nH]1)C(=O)N[C@H](C(=O)N[C@@H](Cc1ccccc1)C(=O)NCC(N)=O)[C@@H](C)O` displayed an IC50 above 1000 nM.
On to `CC(=O)N[C@H](C(=O)N[C@@H](C)C(=O)N[C@@H](CC(=O)O)C(=O)N[C@@H](Cc1c[nH]c2ccccc12)C(=O)N[C@H](C(=O)N[C@@H](CS)C(=O)N[C@@H](Cc1ccc(O)cc1)C(=O)N[C@@H](Cc1c[nH]c2ccccc12)C(=O)N[C@@H](Cc1cnc[nH]1)C(=O)N[C@H](C(=O)N[C@@H](Cc1ccccc1)C(=O)NCC(N)=O)[C@@H](C)O)C(C)C)C(C)(C)S`, for which the IC50 lay in the range of 1000 to 10000 nM.
For the molecule `CC(=O)N[C@H]1CCSC[C@@H](C(=O)N[C@@H](Cc2ccc(Cl)c(Cl)c2)C(=O)N[C@@H](Cc2ccc3ccccc3c2)C(=O)NC(C)(C)C(=O)N[C@@H](CCC(=O)O)C(=O)N[C@@H](CC(N)=O)C(=O)NCC(N)=O)NC(=O)[C@H](CCC(N)=O)NC(=O)[C@H](Cc2c[nH]c3ccccc23)NC(=O)[C@H]([C@@H](C)O)NC(=O)[C@H](CCC(N)=O)NC1=O`, the IC50 lay within 100 to 1000 nM.
Molecule `CCCCCCCCCCCCCCCC(=O)NCCCC[C@H](NC(=O)[C@H](Cc1c[nH]c2ccccc12)NC(=O)[C@H](Cc1ccc(O)cc1)NC(=O)[C@H](CS)NC(=O)[C@H](CCC(N)=O)NC(=O)[C@H](Cc1c[nH]c2ccccc12)NC(=O)[C@@H](NC(=O)[C@H](CCC(N)=O)NC(=O)[C@H](CS)NC(C)=O)[C@@H](C)O)C(=O)N[C@@H](CCC(=O)O)C(=O)N[C@@H](CC(N)=O)C(=O)NCC(N)=O` had an IC50 of 4880 nM.
`CC(=O)N[C@@H](CS)C(=O)N[C@@H](CCC(N)=O)C(=O)N[C@H](C(=O)N[C@@H](Cc1c[nH]c2ccccc12)C(=O)N[C@@H](CCC(N)=O)C(=O)N[C@@H](CS)C(=O)N[C@@H](Cc1ccc(O)cc1)C(=O)N[C@H](CC(=O)N[C@@H](CCCNC(=N)N)C(=O)N[C@H](C(=O)N[C@@H](CC(N)=O)C(=O)NCC(=O)NCCOCC(=O)N[C@H](CCCCN)C(N)=O)C(C)C)Cc1cccc2ccccc12)[C@@H](C)O` showed an IC50 above 30000 nM.
Molecule `CC(C)[C@H](NC(=O)[C@H](Cc1c[nH]c2ccccc12)NC(=O)[C@H](CC(=O)O)NC(=O)[C@H](C)NC(=O)[C@@H](N)CS)C(=O)N[C@@H](CS)C(=O)N[C@@H](Cc1ccc(O)cc1)C(=O)N[C@@H](Cc1cccc2ccccc12)C(=O)N[C@@H](Cc1cnc[nH]1)C(=O)N(C)CC(=O)N[C@@H](Cc1ccccc1)C(=O)O` gave an IC50 above 1000 nM.
As to `CC(=O)N[C@@H](CS)C(=O)N[C@@H](CCCNC(=N)N)C(=O)N[C@@H](CC(=O)O)C(=O)N[C@@H](Cc1c[nH]c2ccccc12)C(=O)N[C@@H](CCC(N)=O)C(=O)N[C@@H](CS)C(=O)N[C@@H](Cc1ccc(O)cc1)C(=O)N[C@@H](Cc1c[nH]c2ccccc12)C(=O)N[C@H](CCCNC(=N)N)C(=O)N[C@@H](CCCCN)C(=O)N[C@@H](Cc1ccccc1)C(=O)NCC(=O)NCCOCCC(=O)N[C@H](CCCCN)C(N)=O`, the IC50 was above 1000 nM.
For `CC(=O)N[C@@H](CS)C(=O)N[C@@H](CCC(N)=O)C(=O)N[C@H](C(=O)N[C@@H](Cc1c[nH]c2ccccc12)C(=O)N[C@@H](CCC(N)=O)C(=O)N[C@@H](CS)C(=O)N[C@@H](Cc1ccc(O)cc1)C(=O)N[C@@](C)(Cc1ccccc1)C(=O)N[C@@H](CCC(C)C)C(=O)N[C@@H](CCC(=O)O)C(=O)N[C@@H](CC(N)=O)C(=O)NCC(N)=O)[C@@H](C)O`, the IC50 was found to be 30000 nM.
